# Publication PMC5650530 (ACS chemical biology, 2017)
# How the values were obtained:
# [1] = system: Neuro2a cells; test: Endogenous S1P content of Neuro2a cells by targeted LC-MS/MS; format: cell-based, mouse; conditions: 6 h treatment
# [2] = system: oligodendrocyte precursor cell (OPC); conditions: cited from earlier work
# [3] = system: rat OPC; test: Monoculture rat OPC differentiation assay; conditions: alone or in combination with miconazole
# [4] = target: T1, hSGPL1 (Homo sapiens, UniProt O95470); format: biochemical
# T1 sequence (O95470 1-568): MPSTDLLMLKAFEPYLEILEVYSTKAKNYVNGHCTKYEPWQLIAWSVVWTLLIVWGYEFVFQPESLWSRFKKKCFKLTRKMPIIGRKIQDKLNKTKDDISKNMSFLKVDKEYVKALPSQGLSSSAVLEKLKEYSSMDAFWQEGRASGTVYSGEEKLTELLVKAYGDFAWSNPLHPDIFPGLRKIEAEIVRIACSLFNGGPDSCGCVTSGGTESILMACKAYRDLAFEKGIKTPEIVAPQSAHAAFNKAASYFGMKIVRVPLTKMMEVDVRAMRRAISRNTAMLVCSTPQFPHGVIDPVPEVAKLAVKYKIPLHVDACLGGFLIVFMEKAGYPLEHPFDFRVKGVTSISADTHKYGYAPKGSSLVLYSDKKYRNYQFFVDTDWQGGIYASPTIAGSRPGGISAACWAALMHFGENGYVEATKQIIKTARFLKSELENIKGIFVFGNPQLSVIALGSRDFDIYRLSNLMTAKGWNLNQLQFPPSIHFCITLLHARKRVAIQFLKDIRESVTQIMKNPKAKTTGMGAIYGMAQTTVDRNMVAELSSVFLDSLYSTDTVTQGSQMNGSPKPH
# [5] = target: T2, TMEM97 (Mus musculus, UniProt Q8VD00); test: LiPIP in Neuro2a cells, TMEM97; format: binding; conditions: drug 30 μM, lipid probe 10 μM
# T2 sequence (Q8VD00 1-176): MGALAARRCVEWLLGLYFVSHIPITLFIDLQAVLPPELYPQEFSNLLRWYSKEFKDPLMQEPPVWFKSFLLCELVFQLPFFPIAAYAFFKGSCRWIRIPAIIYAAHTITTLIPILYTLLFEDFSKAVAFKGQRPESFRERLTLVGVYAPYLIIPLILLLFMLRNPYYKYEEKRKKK
# [6] = target: T3, mSGPL1 (Mus musculus, UniProt Q8R0X7); test: AEA-DA probe interactions with mSGPL1 in vitro; format: binding; conditions: Fig. S3c
# T3 sequence (Q8R0X7 1-568): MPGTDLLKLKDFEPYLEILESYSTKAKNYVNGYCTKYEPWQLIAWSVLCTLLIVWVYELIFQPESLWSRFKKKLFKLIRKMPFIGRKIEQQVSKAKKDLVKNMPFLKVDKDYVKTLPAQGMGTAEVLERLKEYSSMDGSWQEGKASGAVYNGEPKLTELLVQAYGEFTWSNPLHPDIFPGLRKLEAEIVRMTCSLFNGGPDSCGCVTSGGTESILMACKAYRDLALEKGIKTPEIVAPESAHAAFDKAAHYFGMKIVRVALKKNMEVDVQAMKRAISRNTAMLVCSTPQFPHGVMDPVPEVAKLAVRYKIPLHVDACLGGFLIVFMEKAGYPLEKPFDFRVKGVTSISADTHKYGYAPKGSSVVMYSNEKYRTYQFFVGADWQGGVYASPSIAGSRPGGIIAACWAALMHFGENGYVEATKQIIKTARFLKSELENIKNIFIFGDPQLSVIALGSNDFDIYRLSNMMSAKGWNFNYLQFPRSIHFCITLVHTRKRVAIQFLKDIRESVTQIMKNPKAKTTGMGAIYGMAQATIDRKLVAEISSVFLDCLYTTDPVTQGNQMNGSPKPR
# [7] = target: T3, mSGPL1; format: biochemical; conditions: tested at concentrations up to 200 μM
# [8] = target: CLPP (Mus musculus, UniProt O88696); test: LiPIP in Neuro2a cells, CLPP; format: binding; conditions: drug 30 μM, lipid probe 10 μM
# CLPP, sequence (O88696 53-272): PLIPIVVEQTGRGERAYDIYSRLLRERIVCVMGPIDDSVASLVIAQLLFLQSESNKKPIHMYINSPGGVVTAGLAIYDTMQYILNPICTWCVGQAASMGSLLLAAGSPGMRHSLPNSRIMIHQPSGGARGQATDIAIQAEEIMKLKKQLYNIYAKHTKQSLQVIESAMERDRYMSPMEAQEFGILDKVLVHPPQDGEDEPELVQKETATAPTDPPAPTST
# [9] = target: T4, rSGPL1 (Rattus norvegicus, UniProt Q8CHN6); format: biochemical; conditions: tested at concentrations up to 200 μM
# T4 sequence (Q8CHN6 1-568): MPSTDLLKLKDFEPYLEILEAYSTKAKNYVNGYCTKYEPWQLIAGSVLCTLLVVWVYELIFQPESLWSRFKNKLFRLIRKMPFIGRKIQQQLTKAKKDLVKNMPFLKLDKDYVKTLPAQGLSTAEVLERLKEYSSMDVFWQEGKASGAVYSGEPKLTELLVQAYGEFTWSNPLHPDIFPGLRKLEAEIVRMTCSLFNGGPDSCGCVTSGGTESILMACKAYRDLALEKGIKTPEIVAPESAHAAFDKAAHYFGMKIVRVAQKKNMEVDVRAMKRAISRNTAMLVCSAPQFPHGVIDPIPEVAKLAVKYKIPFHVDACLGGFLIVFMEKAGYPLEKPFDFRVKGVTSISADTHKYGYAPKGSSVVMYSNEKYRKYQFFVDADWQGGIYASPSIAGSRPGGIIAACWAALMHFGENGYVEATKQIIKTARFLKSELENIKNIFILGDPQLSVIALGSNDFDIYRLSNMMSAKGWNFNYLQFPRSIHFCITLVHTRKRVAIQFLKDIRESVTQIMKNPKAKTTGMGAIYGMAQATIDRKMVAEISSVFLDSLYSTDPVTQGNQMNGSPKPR
# [10] = target: T3, mSGPL1; test: Gel-based blockade of AEA-DA labeling of recombinant mSGPL1 in HEK293T cells; format: binding; conditions: recombinant mSGPL1 expressed in HEK293T cells; AEA-DA 2 μM
# [11] = target: T5, EPHX1 (Mus musculus, UniProt Q9D379); test: LiPIP in Neuro2a cells, EPHX1; format: binding; conditions: drug 30 μM, lipid probe 10 μM
# T5 sequence (Q9D379 1-455): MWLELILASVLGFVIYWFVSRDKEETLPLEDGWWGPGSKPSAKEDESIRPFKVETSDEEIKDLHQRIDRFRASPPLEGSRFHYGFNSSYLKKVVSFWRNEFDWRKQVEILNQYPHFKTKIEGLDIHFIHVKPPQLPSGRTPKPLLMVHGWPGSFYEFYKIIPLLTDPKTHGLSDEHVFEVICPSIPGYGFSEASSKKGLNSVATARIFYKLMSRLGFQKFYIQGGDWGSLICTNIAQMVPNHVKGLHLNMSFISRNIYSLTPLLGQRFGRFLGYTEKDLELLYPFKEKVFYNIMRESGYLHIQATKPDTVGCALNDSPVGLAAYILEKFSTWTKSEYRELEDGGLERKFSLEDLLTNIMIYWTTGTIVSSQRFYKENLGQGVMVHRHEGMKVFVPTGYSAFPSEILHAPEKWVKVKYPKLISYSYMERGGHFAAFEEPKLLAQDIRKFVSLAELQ
# [12] = target: T6, SGPL1 (Mus musculus, UniProt Q8R0X7); test: LiPIP in Neuro2a cells, SGPL1; format: binding; conditions: drug 30 μM, lipid probe 10 μM
# T6 sequence (Q8R0X7 1-568): T3 sequence (Q8R0X7 1-568)
# [13] = target: T7, PNPLA2 (Homo sapiens, UniProt Q96AD5); test: LiPIP probe competition in HEK293T cells, PNPLA2; format: binding; conditions: unaltered lipid probe enrichment ratio
# T7 sequence (Q96AD5 1-504): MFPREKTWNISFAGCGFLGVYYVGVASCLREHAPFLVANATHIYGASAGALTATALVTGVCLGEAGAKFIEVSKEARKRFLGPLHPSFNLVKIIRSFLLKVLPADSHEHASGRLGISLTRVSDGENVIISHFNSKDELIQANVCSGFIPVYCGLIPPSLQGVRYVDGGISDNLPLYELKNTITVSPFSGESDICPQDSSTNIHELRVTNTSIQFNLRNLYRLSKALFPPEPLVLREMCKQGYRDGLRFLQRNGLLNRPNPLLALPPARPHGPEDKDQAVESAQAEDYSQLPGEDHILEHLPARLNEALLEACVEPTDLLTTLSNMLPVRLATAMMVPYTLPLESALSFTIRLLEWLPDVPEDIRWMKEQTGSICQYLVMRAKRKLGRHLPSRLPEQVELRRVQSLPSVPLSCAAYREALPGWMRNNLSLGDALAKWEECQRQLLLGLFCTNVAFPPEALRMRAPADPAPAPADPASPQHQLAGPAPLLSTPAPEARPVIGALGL
# [14] = target: T8, EPHX2 (Homo sapiens, UniProt P34913); test: LiPIP probe competition in HEK293T cells, off-target EPHX2; format: binding; conditions: ligand 25 μM
# T8 sequence (P34913 1-555): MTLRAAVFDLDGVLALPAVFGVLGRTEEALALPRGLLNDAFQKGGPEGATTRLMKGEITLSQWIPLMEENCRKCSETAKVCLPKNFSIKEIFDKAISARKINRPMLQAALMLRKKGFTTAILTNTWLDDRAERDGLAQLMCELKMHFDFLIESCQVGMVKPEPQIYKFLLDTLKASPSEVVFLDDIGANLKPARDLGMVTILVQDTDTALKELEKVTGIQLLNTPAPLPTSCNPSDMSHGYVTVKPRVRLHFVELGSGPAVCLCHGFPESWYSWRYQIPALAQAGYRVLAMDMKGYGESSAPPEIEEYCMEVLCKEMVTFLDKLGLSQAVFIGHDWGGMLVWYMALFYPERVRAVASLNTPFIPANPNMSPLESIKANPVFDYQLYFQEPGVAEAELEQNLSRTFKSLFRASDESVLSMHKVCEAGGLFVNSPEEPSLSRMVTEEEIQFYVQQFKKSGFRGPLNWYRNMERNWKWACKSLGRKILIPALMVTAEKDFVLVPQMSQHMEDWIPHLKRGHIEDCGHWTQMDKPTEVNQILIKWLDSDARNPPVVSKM
# [15] = target: T9, ABHD5 (Homo sapiens, UniProt Q8WTS1); test: LiPIP; format: binding; conditions: ligand at both 5 and 25 μM; probe 10 μM; HEK293T cells
# T9 sequence (Q8WTS1 1-349): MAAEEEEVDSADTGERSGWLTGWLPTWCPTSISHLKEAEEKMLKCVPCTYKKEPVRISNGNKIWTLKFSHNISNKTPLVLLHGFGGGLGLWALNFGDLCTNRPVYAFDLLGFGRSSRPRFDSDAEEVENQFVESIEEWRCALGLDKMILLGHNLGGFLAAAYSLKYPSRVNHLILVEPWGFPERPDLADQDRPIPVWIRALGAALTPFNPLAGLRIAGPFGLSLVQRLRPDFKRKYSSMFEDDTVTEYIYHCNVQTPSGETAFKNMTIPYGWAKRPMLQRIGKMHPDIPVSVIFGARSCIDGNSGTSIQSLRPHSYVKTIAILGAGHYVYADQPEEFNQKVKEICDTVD
# [16] = target: T10, ABHD10 (Homo sapiens, UniProt Q9NUJ1); test: LiPIP probe competition in HEK293T cells, off-target ABHD10; format: binding; conditions: ligand 25 μM
# T10 sequence (Q9NUJ1 53-306): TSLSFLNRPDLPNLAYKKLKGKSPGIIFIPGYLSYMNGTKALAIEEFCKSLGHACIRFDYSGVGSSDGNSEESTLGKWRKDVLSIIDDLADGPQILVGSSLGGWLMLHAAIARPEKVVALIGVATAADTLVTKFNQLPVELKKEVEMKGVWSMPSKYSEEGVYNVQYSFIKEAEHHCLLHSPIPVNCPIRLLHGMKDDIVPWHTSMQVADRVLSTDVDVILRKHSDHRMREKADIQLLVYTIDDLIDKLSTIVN
smiles,measurement,setting,value
Clc1ccc(COC(Cn2ccnc2)c2ccc(Cl)cc2Cl)c(Cl)c1 (stereo not drawn) [miconazole],effect on endogenous S1P content,[1],increased the endogenous S1P content
same,OPC differentiation by phenotypic screening,[2],promote oligodendrocyte precursor cell (OPC) differentiation
same,effect on OPC differentiation (MBP+ cells),[3],promotion of rat OPC differentiation
same,IC50,[4],6.5 µM
same,maximal inhibition of hSGPL1 (plateau),[4]; fluorogenic S1P substrate analog,40%
"C[C@@H]1CN(c2nnc(Cc3ccccc3)c3ccc(C#N)cc23)CCN1c1ccc(C#N)cn1 [compound 11, (R)-1-benzyl-4-(4-(5-cyanopyridin-2-yl)-3-methylpiperazin-1-yl)phthalazine-6-carbonitrile]",effect on OPC differentiation (MBP+ cells),[3],did not promote OPC differentiation
C[C@@H](c1ncncc1F)[C@](O)(Cn1cncn1)c1ccc(F)cc1F [voriconazole],OPC differentiation by phenotypic screening,[2],inactive
same,"SILAC ratio (light/heavy), TMEM97",[5],~ 1.0
same,blockade of AEA-DA probe interactions with mSGPL1 in vitro,[6],but not voriconazole
same,inhibition of mSGPL1 activity,[7],did not inhibit
same,"SILAC ratio (light/heavy), CLPP",[8],~ 1.0
same,inhibition of rSGPL1 activity,[9],did not inhibit
same,blockade of AEA-DA probe binding to mSGPL1,[10],but not voriconazole
same,"SILAC ratio (light/heavy), EPHX1",[11],~ 1.0
same,inhibition of hSGPL1 activity,[4]; tested at concentrations up to 200 μM,did not inhibit
same,"SILAC ratio (light/heavy), SGPL1",[12],~ 1.0
CCCCNC(=O)Nc1ccc2c(c1)N(C)C(=O)c1ccccc1S2 [SR-4995],engagement of PNPLA2 (lipid probe enrichment ratio),[13],not directly engaged
same,"SILAC ratio (LiPIP probe displacement), EPHX2",[14],≥ 3.0
same,blocking the A-DA or AEA-DA probe interaction with ABHD5,[15],> 80%
CCCCCCCCc1ccc(CC[C@](N)(CO)COP(=O)(O)O)cc1 [(S)-pFTY720],effect on OPC differentiation (MBP+ cells),[3],no impact on OPC differentiation
"CCCCCCCCCCCCC/C=C/[C@@H](O)[C@@H](N)COP(=O)(O)O [S1P, sphingosine 1-phosphate]",blockade of AEA-DA probe interactions with mSGPL1 in vitro,[6],inhibited AEA-DA binding to SGPL1
Cc1ccc2c(CC(=O)N3CCN(S(=O)(=O)c4ccc5c(c4)OCCO5)CC3)coc2c1 [SR-4559],"SILAC ratio (LiPIP probe displacement), ABHD10",[16],≥ 3.0
same,engagement of PNPLA2 (lipid probe enrichment ratio),[13],not directly engaged
same,blocking the A-DA or AEA-DA probe interaction with ABHD5,[15],> 80%
